Holding throughout (format): cell-based, human
For one series, the system named is IL-1α. The method, then: (§1) Additionally, the influence on the cell viability and the release of lactate dehydrogenase (LDH) was examined over the incubation time. Disruptions of the cell membranes can be measured by the release of the cytosolic enzyme LDH and be evaluated as a marker for cellular necrosis. As the biocompatibility of the material is determined by further cellular and molecular factors, the analysis of the cellular interleukin release allows the conclusion on e.g. pro-inflammatory effects of the substances, which would not be possible to be detected by sole cytotoxicity. Such interleukins are interleukins 1α, 6 or 8, which are involved in coordinating the cellular proliferation, cell migration and possible inflammatory processes. Such a method is described in, for example, Wiegand C, Hipler UC. Evaluation of biocompatibility and cytotoxicity using keratinocyte and fibroblast cultures. Skin Pharmacol Physiol 2009; 22:74-82; Wiegand C, Winter D, Hipler UC. Molecular-weight-dependent toxic effects of chitosans on the human keratinocyte cell line HaCaT. Skin Pharmacol Physiol. 2010;23(3):164-70.
(§2) The spore suspensions and the solutions of sertaconazol, ciclopiroxolamin and terbinafin were prepared as in Example 1, wherein the respective test concentrations were obtained by diluting these solutions in ultrapure water (WFI; Fresenius Kabi) instead of SGB (Merck). Full skin models were produced as previously described [Reddersen K, Wiegand C, Elsner P, Hipler UC. Three-dimensional human skin model infected with Staphylococcus aureus as a tool for evaluation of bioactivity and biocompatibility of antiseptics. Int J Antimicrob Agents. 2019; 54(3):283-291; Wiegand C, Fink S, Beier O, Horn K, Pfuch A, Schimanski A, Grünler B, Hipler UC, Elsner P. Dose- and Time-Dependent Cellular Effects of Cold Atmospheric Pressure Plasma Evaluated in 3D Skin Models. Skin Pharmacol Physiol. 2016;29(5):257-265].Particularly, normal human dermal fibroblasts (NHDF; Lot 1060702.1, Promocell) and normal human epidermal keratinocytes (NHEK; Lot 9100102, Promocell) were used. Fibroblasts were cultivated in Dulbecco's modified eagle medium (DMEM; Lot MC09049P, Amimed), with 2% foetal calf serum (Lot P160509; PAN), 5 ng/mL hFGF (Lot 0329586; novoprotein) and 5 µg/ml Insulin (Lot H07443P, AMIMED) at 37°C and a 5% CO2 atmosphere. Keratinocytes were cultivated in keratinocyte medium (KBM, Lot 446M063, Promocell) at 37°C and a 5% CO2 atmosphere. The cultivation was performed over 7 days in 75 cm^2 cell culture flasks (Greiner Bio-One). The cells were subsequently detached with Trypsin-EDTA (Lot 2091326; Gibco) and dissolved in the respective medium. For producing the dermis equivalent, fibroblasts were cultivated in 12-well inserts (Greiner bio-one) with DMEM (Lot MC09049P, Amimed) + 10% foetal calf serum (Lot P160509, PAN) + 1% Gentamycin (Lot 2027100, Gibco) + 150 µg/ml ascorbic acid (Lot BCBS1081V, Sigma) for 3 weeks at […] and 5 % CO2. The medium was changed all 2-3 days. Before seeding the keratinocytes for producing the […], the medium surrounding the insert was completely removed and the dermis upper layer was coated with fibronectin (50 µg/mL; Lot 435P078, Promocell). After 30 min of incubation of the dermis equivalent with fibronectin, the seeding of the keratinocytes was performed with 2 × 10^5 cells / insert in KBM (Lot 446M063, Promocell) + 5% FKS (Lot P160509, PAN) + 1% Gentamycin (Lot 2027100, Gibco). Subsequently, the skin models were incubated for 45 min in the incubator before the models were flooded with KBM + 5% FKS + 1% Gentamycin. The skin models were cultivated for 7 days by submersion in the medium with decreasing foetal calf serum concentration (5 %, 2 %, 0 %). The medium was changed all 2-3 days. After the cultivation by submersion, the skin models were further cultivated for 12 days at the air-medium interface (airlift cultivation). […]

The test system of another series is IL-6. The method, then:
as §1, §2

The next series relates to IL-8. Here is the method: as §1, §2

As for `Cc1cc(C2CCCCC2)n(O)c(=O)c1` [Ciclopiroxolamin, ciclopiroxolamin], in the series with IL-1α, the “secretion of IL-1α” value is recorded as “no significant secretion”.
As for `Clc1ccc(C(Cn2ccnc2)OCc2csc3c(Cl)cccc23)c(Cl)c1` (stereo not shown) [Sertaconazol, sertaconazol], in the series on IL-6, the “release of IL-6” value is “does not induce the release”. In addition, in the series with IL-8, the “release of IL-8” value is on record as “does not induce the release”.
For the compound `CN(C/C=C/C#CC(C)(C)C)Cc1cccc2ccccc12` [Terbinafin, terbinafin], the “secretion of IL-1α” value with IL-1α is on record as “no significant secretion”.

These data come from EP4129284B1, “SERTACONAZOL FOR PROVIDING A SPORISTATIC AND/OR SPORICIDAL EFFECT” (Dr. Pfleger Arzneimittel GmbH, priority 2021, dated 2023).
